The values that follow come from US20250051323A1 (RICHTER GEDEON NYRT., priority 2021, published 2025).

Where a name gives a salt, the structure may show the parent alone. Read-outs that look alike come from different tables or passages of the source.

In experiment [1] the target is T1, human recombinant GABAA α5β3γ2 receptor (Homo sapiens (Human), UniProt P18507+P31644). Nature of the experiment: Functional assay, QPatch automated whole-cell patch clamp, modulation of GABA-evoked current. The format is cell-based. The following applies: read-out: hGABAA α5 efficacy (percentage modulation of GABA-evoked peak current). How it is done:
Human HEK293 cell lines expressing GABAAα5β3γ2 receptors were used in functional assays using the QPatch automated patch clamp system.
HEK293 cell lines stably expressing human recombinant GABAA α5β3γ2 receptor subunits (Millipore, CYL3053) were cultured in DMEM supplemented with 10% FBS (Gibco), passed two times per week and plated on Petri dishes previously coated with poly-d-lysine.
Automated whole-cell patch clamp recordings were made from cells 2-4 days after plating.
Inward currents were evoked at a holding potential of −80 mV by 3-s-long applications of the control agonist GABA at 1 μM at 2-4-min intervals first in concentration-matched DMSO (0.1 or 0.3%) control solution for five times, then in the presence of the test compound for four times, finally in control solution again for three times (wash-out). At the end of the experiment 100 μM GABA was applied to saturate the GABA-response and to assess the efficacy of the control GABA application. Current signals were low-pass filtered at 100 Hz and recorded at a sampling rate of 1 kHz.
The percentage modulation was calculated from the comparison of GABA-evoked peak current amplitudes in the presence and absence of the test compound.

In experiment [2] the target is T1, human recombinant GABAA α5β3γ2 receptor. Nature of the experiment: Binding assay, [3H]Ro151788 displacement on HEK cell membranes. Particulars: [3H]Ro151788 0.5 nM, 60 minutes at 4° C., Cheng-Prusoff; read-out: hGABAA α5 Ki. On the procedure:
The GABAA α5β3γ2 protein used for the receptor binding assay was derived from membranes produced from HEK cells (Millipore CYL3073) expressing the human recombinant GABAA α5β3γ2 receptor. Cells were stored and cultured in-house according to the instructions provided by the vendor (Millipore). Cell pellet was homogenized in 10 times modified Krebs Henseleit buffer (membrane preparation buffer): 20 mM Tris, 120 mM NaCl, 100 mM KCl, 25 mM CaCl2 and 25 mM MgCl2 pH=7.4 at 4° C. using Ultra Turrax (Janke&Kunkel) maximal speed for 15 seconds. The homogenate was centrifuged at 40,000 g for 30 minutes at 4° C. Supernatant was discarded and the resulting pellet was washed in membrane preparation buffer. Pellet was resuspended in membrane preparation buffer and aliquots of 1.4 mL ampules were stored at −70° C. until use.
Receptor binding assays were performed in 96-well format in deep-well plates. For each 96-well plate one ampule of membrane homogenate was thawed and diluted in binding buffer (50 mM Tris pH=7.4, 100 mM KCl) and 200 μL was dispensed into each well. Radioligand [^3H]Ro151788 (Perkin Elmer: NET757250UC) was prepared in binding buffer and added to each well in 50 μL volume to give final concentration of 0.5 nM. Test compounds in suitable concentration(s) were added in additional 50 μL. The final assay volume was 300 μL. Incubation was carried out for 60 minutes at 4° C. For non-specific binding 10 μM unlabeled diazepam was used. […] The plate was dried at 40° C. for an hour and 40 μL Microscint (Perkin Elmer) scintillation cocktail was added to each well. The plate was read in Microbeta (Perkin Elmer).
The specific radioligand binding (SB) was defined as the difference between total binding (Tot) and the non-specific binding (NSB). Results are expressed as a percent inhibition of specific binding obtained in the presence of compound of interest.
For IC50 and Ki determination a minimum of six drug concentrations in triplicate were used. […] Ki values (i.e., inhibition constants) were calculated using the Cheng-Prusoff equation Ki=IC5O/[1+(L/KD)], where [L] is the radioligand concentration and KD the affinity of the labelled ligand for receptor. KD was determined from the Saturation analyses.

The mark [3] stands for this setting: test compound 1 μM, GABA 1 μM, holding potential −80 mV.

What is called Ki is a measure of affinity in units of concentration, obtained from inhibition or displacement.

T1 sequence (P31644 32-462): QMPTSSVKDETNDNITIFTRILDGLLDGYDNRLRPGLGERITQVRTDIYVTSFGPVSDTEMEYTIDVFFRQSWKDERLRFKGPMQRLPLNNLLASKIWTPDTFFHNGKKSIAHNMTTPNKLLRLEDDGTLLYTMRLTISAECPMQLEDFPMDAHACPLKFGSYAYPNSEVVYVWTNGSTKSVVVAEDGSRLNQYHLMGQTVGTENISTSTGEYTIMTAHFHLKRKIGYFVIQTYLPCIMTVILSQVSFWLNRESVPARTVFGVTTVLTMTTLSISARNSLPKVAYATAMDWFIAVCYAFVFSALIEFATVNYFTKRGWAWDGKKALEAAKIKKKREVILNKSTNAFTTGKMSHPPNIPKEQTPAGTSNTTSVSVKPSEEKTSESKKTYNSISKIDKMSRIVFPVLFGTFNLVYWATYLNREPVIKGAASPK
T1 sequence (P28472 26-473 partner): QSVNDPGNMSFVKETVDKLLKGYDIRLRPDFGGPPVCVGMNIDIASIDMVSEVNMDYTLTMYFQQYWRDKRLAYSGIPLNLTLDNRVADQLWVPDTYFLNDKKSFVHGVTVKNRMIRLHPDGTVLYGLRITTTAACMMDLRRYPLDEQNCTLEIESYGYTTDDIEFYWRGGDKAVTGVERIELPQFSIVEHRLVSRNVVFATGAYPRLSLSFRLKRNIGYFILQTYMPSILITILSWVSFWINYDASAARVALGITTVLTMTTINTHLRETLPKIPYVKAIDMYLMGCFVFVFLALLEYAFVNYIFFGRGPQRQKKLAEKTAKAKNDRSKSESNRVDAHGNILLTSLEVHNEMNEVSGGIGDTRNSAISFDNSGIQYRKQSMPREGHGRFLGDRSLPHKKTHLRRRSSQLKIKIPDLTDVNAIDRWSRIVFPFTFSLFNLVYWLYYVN
T1 sequence (P18507 40-475): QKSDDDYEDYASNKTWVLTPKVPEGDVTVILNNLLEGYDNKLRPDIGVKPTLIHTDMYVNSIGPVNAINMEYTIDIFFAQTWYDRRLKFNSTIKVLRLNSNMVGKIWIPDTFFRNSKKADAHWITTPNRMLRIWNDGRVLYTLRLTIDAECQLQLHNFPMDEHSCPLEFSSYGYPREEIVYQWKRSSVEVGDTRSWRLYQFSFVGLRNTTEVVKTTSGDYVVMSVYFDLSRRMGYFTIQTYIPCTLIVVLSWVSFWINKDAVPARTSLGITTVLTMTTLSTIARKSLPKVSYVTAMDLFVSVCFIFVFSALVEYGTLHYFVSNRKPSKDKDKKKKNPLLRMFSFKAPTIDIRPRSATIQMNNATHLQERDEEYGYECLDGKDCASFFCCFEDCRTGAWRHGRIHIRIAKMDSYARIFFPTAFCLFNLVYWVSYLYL

As to `CCC1(N2CCc3cc(OCc4c(C)nnn4-c4ccc(C)nc4)ncc3C2)COC1` [Example 43, 2-(3-ethyloxetan-3-yl)-6-{[4-methyl-1-(6-methylpyridin-3-yl)-1H-1,2,3-triazol-5-yl]methoxy}-1,2,3,4-tetrahydro-2,7-naphthyridine napadisylate salt], the activation at 1 µM in experiment [1] (setting [3]) came out at 85%.
For `Cc1ccc(-n2nnc(C)c2COc2cc3c(cn2)CN(C2CCOC2)CC3)cn1` (racemic) [Example 29, 6-{[4-methyl-1-(6-methylpyridin-3-yl)-1H-1,2,3-triazol-5-yl]methoxy}-2-(oxolan-3-yl)-1,2,3,4-tetrahydro-2,7-naphthyridine], the activation at 1 µM in experiment [1] (setting [3]) came out at 102%. For the same compound, in experiment [2], the inhibition constant (Ki) came out at 29.7 nM.
For `Cc1ccc(-c2noc(C)c2COc2cc3c(cn2)CN(C2CCOCC2)CC3)cn1` [Example 11, 6-{[5-methyl-3-(6-methylpyridin-3-yl)-1,2-oxazol-4-yl]methoxy}-2-(oxan-4-yl)-1,2,3,4-tetrahydro-2,7-naphthyridine] the same measures were 114% and 7.4 nM.
For `Cc1onc(-c2ccc(C(F)(F)F)nc2)c1COc1cc2c(nn1)CNCC2` [Example 15, 5-[5-methyl-4-({5H,6H,7H,8H-pyrido[3,4-c]pyridazin-3-yloxy}methyl)-1,2-oxazol-3-yl]-2-(trifluoromethyl)pyridine] the same measures were 115% and 17.1 nM.
As for `Cc1ccc(-n2nnc(C)c2COc2cc3c(nn2)CN(C2CCC2)CC3)cn1` [Example 46, 5-{5-[({7-cyclobutyl-5H,6H,7H,8H-pyrido[3,4-c]pyridazin-3-yl}oxy)methyl]-4-methyl-1H-1,2,3-triazol-1-yl}-2-methylpyridine tartarate salt], in experiment [1], the activation at 1 µM came to 76%. The inhibitory constant (Ki) in experiment [2] is 61.5 nM.
With `Cc1ccc(-c2noc(C)c2COc2cc3c(cn2)CN(C2CCOC2)CC3)cn1` (centres unmarked) [Example 9, 6-{[5-methyl-3-(6-methylpyridin-3-yl)-1,2-oxazol-4-yl]methoxy}-2-(oxolan-3-yl)-1,2,3,4-tetrahydro-2,7-naphthyridine], the activation at 1 µM in experiment [1] (setting [3]) amounted to 106%. Further, the Ki in experiment [2] is 4.9 nM.
As to `Cc1ccc(-n2nnc(C)c2COc2cc3c(nn2)CNCC3)cn1` [Example 44, 2-methyl-5-[4-methyl-5-({5H,6H,7H,8H-pyrido[3,4-c]pyridazin-3-yloxy}methyl)-1H-1,2,3-triazol-1-yl]pyridine], the activation at 1 µM in experiment [1] (setting [3]) came to 96%. Further, the Ki in experiment [2] amounted to 40.4 nM.
As for `Cc1onc(-c2ccc(C(F)(F)F)nc2)c1COc1cc2c(cn1)CN(C1CCOCC1)CC2` [Example 7, 6-({5-methyl-3-[6-(trifluoromethyl)pyridin-3-yl]-1,2-oxazol-4-yl}methoxy)-2-(oxan-4-yl)-1,2,3,4-tetrahydro-2,7-naphthyridine], the activation at 1 µM in experiment [1] (setting [3]) came to 125%. Further, the inhibition constant (Ki) in experiment [2] was determined as 29.3 nM.
For `Cc1ccc(-n2nnc(C)c2COc2cc3c(cn2)CNCC3)cn1` [Example 20, 6-{[4-methyl-1-(6-methylpyridin-3-yl)-1H-1,2,3-triazol-5-yl]methoxy}-1,2,3,4-tetrahydro-2,7-naphthyridine] the same measures were 111% and 26.5 nM.
As to `Cc1onc(-c2ccc(C(F)(F)F)nc2)c1COc1cc2c(cn1)CNCC2` [Example 2, 6-({5-methyl-3-[6-(trifluoromethyl)pyridin-3-yl]-1,2-oxazol-4-yl}methoxy)-1,2,3,4-tetrahydro-2,7-naphthyridine trifluoroacetic acid salt], the activation at 1 µM in experiment [1] came to 100%. For the same compound, the Ki in experiment [2] is 37 nM.
As for `Cc1nnn(-c2ccc(C(F)(F)F)nc2)c1COc1cc2c(cn1)CNCC2` [Example 25, 6-({4-methyl-1-[6-(trifluoromethyl)pyridin-3-yl]-1H-1,2,3-triazol-5-yl}methoxy)-1,2,3,4-tetrahydro-2,7-naphthyridine], the activation at 1 µM in experiment [1] (setting [3]) came to 73%. Also, in experiment [2], the inhibition constant (Ki) is 128 nM.
The corresponding values for `COc1ccc(-n2nnc(C)c2COc2cc3c(cn2)CNCC3)cn1` [Example 34, 6-{[1-(6-methoxypyridin-3-yl)-4-methyl-1H-1,2,3-triazol-5-yl]methoxy}-1,2,3,4-tetrahydro-2,7-naphthyridine] are 62% and 51.6 nM.
For `Cc1ccc(-n2nnc(C)c2COc2cc3c(cn2)CN(C(C)C)CC3)cn1` [Example 22, 6-{[4-methyl-1-(6-methylpyridin-3-yl)-1H-1,2,3-triazol-5-yl]methoxyl}-2-(propan-2-yl)-1,2,3,4-tetrahydro-2,7-naphthyridine] the same measures were 68% and 22.7 nM.
The corresponding values for `Cc1nnn(-c2ccc(C(F)F)nc2)c1COc1cc2c(cn1)CN(C)CC2` [Example 24, 6-({1-[6-(difluoromethyl)pyridin-3-yl]-4-methyl-1H-1,2,3-triazol-5-yl}methoxy)-2-methyl-1,2,3,4-tetrahydro-2,7-naphthyridine] are 88% and 8.3 nM.
With `Cc1ccc(-c2noc(C)c2COc2cc3c(nn2)CN(C)CC3)cn1` [Example 16, 2-methyl-5-{5-methyl-4-[({7-methyl-5H,6H,7H,8H-pyrido[3,4-c]pyridazin-3-yl}oxy)methyl]-1,2-oxazol-3-yl}pyridine], the activation at 1 µM in experiment [1] (setting [3]) came out at 146%. Moreover, the inhibitory constant (Ki) in experiment [2] was 5.6 nM.
For `Cc1nnn(-c2ccc(C(F)(F)F)nc2)c1COc1cc2c(cn1)CN(C1CCOC1)CC2` (centres unmarked) [Example 32, 6-({4-methyl-1-[6-(trifluoromethyl)pyridin-3-yl]-1H-1,2,3-triazol-5-yl}methoxy)-2-(oxolan-3-yl)-1,2,3,4-tetrahydro-2,7-naphthyridine] the same measures were 155% and 44.5 nM.
For `Cc1ccc(-n2nnc(C)c2COc2cc3c(cn2)CN(C2COC2)CC3)cn1` [Example 31, 6-{[4-methyl-1-(6-methylpyridin-3-yl)-1H-1,2,3-triazol-5-yl]methoxy}-2-(oxetan-3-yl)-1,2,3,4-tetrahydro-2,7-naphthyridine] the same measures were 115% and 36 nM.
For `Cc1ccc(-c2noc(C)c2COc2cc3c(cn2)CN(c2ccccn2)CC3)cn1` [Example 13, 6-{[5-methyl-3-(6-methylpyridin-3-yl)-1,2-oxazol-4-yl]methoxy}-2-(pyridin-2-yl)-1,2,3,4-tetrahydro-2,7-naphthyridine] the same measures were 129% and 6.6 nM.
Consider `COc1ccc(-n2nnc(C)c2COc2cc3c(cn2)CN(C2CCOCC2)CC3)cn1` [Example 40, 6-{[1-(6-methoxypyridin-3-yl)-4-methyl-1H-1,2,3-triazol-5-yl]methoxy}-2-(oxan-4-yl)-1,2,3,4-tetrahydro-2,7-naphthyridine heminapadisylate salt], for which the activation at 1 µM in experiment [1] (setting [3]) came out at 86%.
Same read-out and setting: to `Cc1ccc(-n2nnc(C)c2COc2cc3c(cn2)CN(C2(C(C)C)COC2)CC3)cn1` [Example 42, 6-{[4-methyl-1-(6-methylpyridin-3-yl)-1H-1,2,3-triazol-5-yl]methoxyl}-2-[3-(propan-2-yl)oxetan-3-yl]-1,2,3,4-tetrahydro-2,7-naphthyridine napadisylate salt] belongs 99%; to `Cc1nnn(-c2ccc(C(F)(F)F)nc2)c1COc1cc2c(cn1)CN(c1cccnc1)CC2` [Example 37, 6-({4-methyl-1-[6-(trifluoromethyl)pyridin-3-yl]-1H-1,2,3-triazol-5-yl}methoxy)-2-(pyridin-3-yl)-1,2,3,4-tetrahydro-2,7-naphthyridine napadysilate salt], 53%.
